Reference: patent US9029092B2, “Solution phase homogeneous assays” (Beckman Coulter, Inc., priority 2009, dated 2015)

Legend:
TnI = experiment: Assays utilizing various SSIA in TnI assay; format: biochemical; settings: for Signal/Noise S1/S0: calibrator S1; for Signal/Noise S2/S0: calibrator S2; for Signal/Noise S3/S0: calibrator S3; for Signal/Noise S4/S0: calibrator S4; for Signal/Noise S5/S0: calibrator S5; for Signal/Noise S6/S0: calibrator S6
Description: In a reaction tube, 400 uL of TnI M6 antibody-HRP conjugate at 0.5 ug/mL in buffered aqueous solution at pH. 8.0 (100 mM Tris, 150 mM NaCl, 0.1 mM EDTA, 0.2% Tween-20 and 1% BSA), 400 uL of AK1˜Dex70/31˜Streptavidin (fraction 1) 2:1 SA/Ab at 2 ug/mL Ab also in buffered aqueous solution at pH 8.0, and 400 uL of calibrator standard solution containing the TnI analyte at a known concentration. One tube was prepared for each calibrator concentration. […] Next, 25 uL of each antioxidant as a concentrated solution of 2 mM, 1 mM or 0.5 mM was pipetted into the plate wells using a repeater pipette. The plates were rotated for 10 seconds to mix and incubated between 5 to 33 minutes. Detection was performed with a SpectraMax L injection plate luminometer.

PSA [1] = experiment: Assay of PSA with dextran scaffold chemiluminescent-labeled sbp with and without SSIA; format: biochemical, human; settings: ascorbic acid as SSIA
Description: In this example, one member of a specific binding pair of monoclonal antibodies for PSA is conjugated to a dextran molecule coupled with AK1, as described in Example 10 below, except the antibody is thiolated and covalently-linked to AK11-labeled and maleimide-activated dextran. A second monoclonal PSA antibody was conjugated to HRP, as described above and provided in an aqueous solution at either 0.5 μg/ml, 0.1 μg/ml or 0.03 μg/ml as indicated in the tables below. The assays were performed by placing 25 μl of sample in each of two reaction vessels. To the sample in the first reaction vessel, 25 μl of Ab1 solution, 25 μl of water, 25 μl of Ab2 solution was added and incubated for 15 minutes. […] Each sample was analyzed according to the above assay method in triplicate. […] A ratio of signal to noise (S/S0) was calculated at each concentration value. […] Samples of known concentration were prepared as described previously. Each sample was analyzed according to the above method in triplicate.

PSA [2] = experiment: Assay of PSA with direct-labeled sbp's (Ab1-AK11, Ab2-HRP) with and without SSIA; format: biochemical, human; settings: 600 μM ascorbic acid solution
Description: The Ab1-AK11 conjugate was provided in PBS, pH 7.4 at 10 μg/ml. The Ab2-HRP conjugate was provided in PBS, pH 7.4 at 0.25 μg/ml. […] For comparison without SSIA, in a second reaction vessel, 25 μl of Ab1-AK11 conjugate, 25 μl of water, 25 μl of Ab2-HRP conjugate were added to 25 μl of sample and incubated for 15 minutes.
Each sample was analyzed according to the above assay method in triplicate. The RLU data collected for each assayed sample during the time interval of 495 milliseconds starting 125 milliseconds from start of trigger solution introduction into the reaction vessel was summed for each individual run, averaged over the triplicates for each sample and presented in Table 13. A ratio of signal to noise (S/S0) was calculated at each concentration value.

[3] = SSIA final concentration 125 uM
[4] = SSIA final concentration 250 uM
[5] = SSIA final concentration 500 uM

## O=C1O[C@H]([C@@H](O)CO)C(O)=C1O [Ascorbic Acid]
TnI; [3]
  Signal/Noise S1/S0: 1.4
  Signal/Noise S2/S0: 2.7
  Signal/Noise S3/S0: 8.5
  Signal/Noise S4/S0: 32.2
  Signal/Noise S5/S0: 228.0
  Signal/Noise S6/S0: 2196.3
TnI; [4]
  Signal/Noise S1/S0: 1.6
  Signal/Noise S2/S0: 2.6
  Signal/Noise S3/S0: 8.2
  Signal/Noise S4/S0: 28.7
  Signal/Noise S5/S0: 188.5
  Signal/Noise S6/S0: 1511.1
TnI; [5]
  Signal/Noise S1/S0: 1.3
  Signal/Noise S2/S0: 1.8
  Signal/Noise S3/S0: 5.1
  Signal/Noise S4/S0: 15.4
  Signal/Noise S5/S0: 87.5
  Signal/Noise S6/S0: 562.4
PSA [1]; PSA 0.0 ng/mL
  RLU, w/SSIA: 1756 RLU
  S/S0, w/SSIA: 1.0
PSA [1]; PSA 0.4 ng/mL
  RLU, w/SSIA: 4393 RLU
  S/S0, w/SSIA: 2.5
PSA [1]; PSA 7.0 ng/mL
  RLU, w/SSIA: 57119 RLU
  S/S0, w/SSIA: 32.5
PSA [1]; PSA 101.6 ng/mL
  RLU, w/SSIA: 604024 RLU
  S/S0, w/SSIA: 344.0
PSA [2]; PSA 0.0 ng/mL
  RLU, With SSIA: 180 RLU
  S/S0, With SSIA: 1.0
PSA [2]; PSA 0.4 ng/mL
  RLU, With SSIA: 324 RLU
  S/S0, With SSIA: 1.8
PSA [2]; PSA 7.0 ng/mL
  RLU, With SSIA: 3032 RLU
  S/S0, With SSIA: 16.8
PSA [2]; PSA 101.6 ng/mL
  RLU, With SSIA: 23119 RLU
  S/S0, With SSIA: 128.4
